According to article PMC8020153 (Journal of Advanced Research, 2020):
pKd: −log10 of the molar value.

Target: pyruvate kinase isozyme type M2 (PKM2) (Homo sapiens, UniProt P14618)
Assay: SPR with immobilized recombinant human PKM2
Assay type: binding

Chain of pyruvate kinase isozyme type M2 (PKM2) (P14618 2-531): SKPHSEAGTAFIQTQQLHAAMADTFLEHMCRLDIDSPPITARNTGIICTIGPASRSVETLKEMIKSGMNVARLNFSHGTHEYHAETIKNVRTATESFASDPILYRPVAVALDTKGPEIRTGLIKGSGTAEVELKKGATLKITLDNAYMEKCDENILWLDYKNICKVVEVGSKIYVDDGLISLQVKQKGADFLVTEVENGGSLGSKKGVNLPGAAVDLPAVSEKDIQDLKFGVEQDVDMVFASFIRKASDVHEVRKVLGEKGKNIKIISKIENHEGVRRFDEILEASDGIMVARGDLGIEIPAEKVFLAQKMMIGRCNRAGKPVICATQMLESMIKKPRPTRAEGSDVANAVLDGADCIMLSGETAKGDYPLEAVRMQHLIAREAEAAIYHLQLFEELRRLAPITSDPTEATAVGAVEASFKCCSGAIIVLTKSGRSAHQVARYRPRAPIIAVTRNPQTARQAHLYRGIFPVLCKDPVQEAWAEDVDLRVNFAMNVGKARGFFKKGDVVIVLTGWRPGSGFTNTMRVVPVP

## C1=Cc2ccccc2Nc2ccccc21 [ISB, Iminostilbene]
  pKd: 4.73
